Molecules are shown by their SMILES. Where two headings read alike, the source gives them in different places.

Here are results for twelve compounds from US6103733A, “Method for increasing HDL cholesterol levels using heteroaromatic phenylmethanes” (priority 1998, dated 2000).

The test system of series [1] is HDL-cholesterol. Particulars: epileptic subjects vs matched patients without epilepsy; phenobarbital and/or phenytoin; cited from earlier work.
Series [2] has as its system CYP3A. Briefly: CYP3A induction measured as increase in rate of ethosuximide clearance after 8-day pretreatment. The class given is in vivo, rats. Particulars: for increase in ethosuximide clearance: 8-day pretreatment, rats; for CYP3A activity induced compared with clotrimazole (Compound (III)): measured by ethosuximide clearance, in words. As to the method: FIG. 1 represents a fold increase in ethosuxinide clearances following an 8-day pretreatment schedule of the azoles;
Using clotrimazole (Compound (III)) as a lead compound, the effect of structure on the ability of a compound to induce CYP3A activity was determined, as measured by the test compound's ability to increase the rate of ethosuximide clearance. Over 40 structural modifications of clotrimazole were tested and significant differences in the ability to induce CYP3A activity was observed.
Analysis of the effect of substitution on the ability of a compound to induce CYP3A activity enables us to propose requirements for the induction in vivo. First, a heteroaromatic nucleus containing basic nitrogen must be present. Significant activity (i.e. >2 fold increase in ethosuximide clearance) is achieved only using substituted imidazoles, 2-methylimidazole (XIV), or in one case, pyridine (XVI). […] A variety of substituents were introduced into a single aryl ring of triphenylmethylimidazole. Most of the monosubstituted 1-triphenylmethylimidazoles produced inducing activity lower than that measured for the unsubstituted member of the series, regardless of the nature of the substituent. High magnitude CYP3A induction (i.e. >3-fold increase in ethosuximide clearance was found in only four substituted triphenylmethyl imidazoles: (XXXI)(meta-chloro). (XXXIII)(para chloro), (XXXVIII)(metafluoro).

In series [3] the test system is CYP3A. Particulars: rats; cited from earlier work.
Series [4] deals with HDL-cholesterol. Briefly: Serum HDL-cholesterol level after feeding of the compound over 8 days. The class given is in vivo. Conditions: feeding over 8 days, rats; in words. An excerpt: FIG. 2 represents a fold increase of HDL-cholesterol per compound;
We have invented a family of related compounds which cause a significant pharmacological elevation of serum high density lipoprotein (HDL-cholesterol) concentration from 20% to greater than 200%. […] The effect on HDL cholesterol was paralleled by an elevation in the level of apoprotein A1 (a protein component of HDL) and by elevation of apo A1 messenger RNA in treated animals.
The effect of CYP3A inducers on levels of HDL-cholesterol was determined by administration of the compound by feeding over 8 days followed by sacrifice of the animal and determination of HDL-cholesterol levels. The effects of benzylimidazole (IV), clotrimazole, the five high magnitude CYP3A inducers and four compounds showing intermediate CYP3A inducing activity were evaluated. […] The significant linear correlation between the increase in HDL-cholesterol and the increase in ethosuximide clearance is shown in FIG. 3, and supports the belief that the activities are related.

Series [5] in a line: Liver/body weight ratio after administration over several days. The class given is in vivo. Conditions: rats, indirect sign of increased cytochrome P450 content. Here is the method: (§1) A correlation between induction of CYP3A and an increase in serum HDL-cholesterol was supported by our early experiments in which selective CYP3A inducers (Clotrimazole, dexamethasone) were administered to rats over a period of several days, and the effect on liver/body weight ratios and on HDL-cholesterol/total cholesterol ratios determined. […] A positive relationship between cytochrome P450 induction and improvement of serum lipid levels was also found.

The subject of series [6] is CYP3A. Conditions: human hepatocytes; cited from earlier work.
A further series deals with HDL2. Description: HDL2/total cholesterol ratio after administration over several days. It counts as in vivo. Conditions: pretreated rats; in words. Here is the method: as §1
The next series deals with apoA1. Particulars: rats; cited from earlier work.
Series [7] has as its system HDL-cholesterol. Particulars: rats; cited from earlier work.
The test system of the next series is cytochromes P450. Particulars: cited from earlier work.
A further series deals with HDL cholesterol. Particulars: prospective experiments; cited from earlier work.

In the case of `O=C1NC(=O)C(c2ccccc2)(c2ccccc2)N1` [phenytoin], the “levels of HDL-cholesterol” value with HDL-cholesterol [1] is on record as “higher levels of HDL-cholesterol”.

Regarding `Fc1cccc(C(c2ccccc2)(c2ccccc2)n2ccnc2)c1` [XXXVIII], in the series on CYP3A [2], the “increase in ethosuximide clearance” value is on record as more than 3 fold and the “CYP3A activity induced compared with clotrimazole (Compound (III))” value is given as “significantly more CYP3A activity than did the lead compound”.

On to `Fc1ccc(C(c2ccccc2)(c2ccccc2)n2ccnc2)cc1` [XXXIX], for which the “CYP3A activity induced compared with clotrimazole (Compound (III))” value with CYP3A [2] was “significantly more CYP3A activity than did the lead compound”.

With `c1ccc(C(c2ccccc2)n2ccnc2)cc1` [XIII, 1-diphenylmethylimidazole], the CYP3A inducing activity entry in the series on CYP3A [2] (structure-activity statement in words, ethosuximide clearance) is given as “progressively lost”.

`Cc1nccn1C(c1ccccc1)(c1ccccc1)c1ccccc1` [XIV]: in the series with CYP3A [2], the “increase in ethosuximide clearance” value was more than 2 fold.

For the compound `Clc1ccccc1C(c1ccccc1)(c1ccccc1)n1ccnc1` [III], the “inducer of CYP3A” value with CYP3A [3] and in the series on CYP3A [6] was “relatively selective inducer” in each case. Also, in the series with HDL-cholesterol [4], the “effect on HDL-cholesterol” value was “significant effect on HDL-cholesterol”. Further, in series [5], the liver/body weight ratio entry is reported as “markedly increased liver/body weight ratios”. Moreover, the HDL2/total cholesterol ratio entry with HDL2 is recorded as “noteworthy improvement in HDL2/total cholesterol ratios”.

Regarding `Clc1cccc(C(c2ccccc2)(c2ccccc2)n2ccnc2)c1` [XXXI], in the series on CYP3A [2], the “increase in ethosuximide clearance” value is listed as more than 3 fold and the “CYP3A activity induced compared with clotrimazole (Compound (III))” value is “significantly more CYP3A activity than did the lead compound”.

Consider `Clc1ccc(C(c2ccccc2)(c2ccccc2)n2ccnc2)cc1` [XXXIII], for which, in the series on CYP3A [2], the “increase in ethosuximide clearance” value was more than 3 fold and the “CYP3A activity induced compared with clotrimazole (Compound (III))” value is given as “significantly more CYP3A activity than did the lead compound”.

For `c1ccc(Cc2ccncc2)cc1` [XVI], the “increase in ethosuximide clearance” value in the series on CYP3A [2] is reported as more than 2 fold.

As to `CCC1(c2ccccc2)C(=O)NC(=O)NC1=O` [phenobarbital], the “levels of HDL-cholesterol” value with HDL-cholesterol [1] is “higher levels of HDL-cholesterol”. The apoA1 entry in the series on apoA1 was “increase HDL-cholesterol and apoA1 in rats”. Also, the HDL-cholesterol entry in the series with HDL-cholesterol [7] was “increase HDL-cholesterol”. The “inducer of the cytochromes P450” value with cytochromes P450 is “known to be an inducer of the cytochromes P450”. For the same compound, the “total serum HDL cholesterol/total cholesterol ratio” value in the series with HDL cholesterol was “increases in total serum HDL cholesterol/total cholesterol ratios”.

`C[C@@H]1C[C@H]2[C@@H]3CCC4=CC(=O)C=C[C@]4(C)[C@@]3(F)[C@@H](O)C[C@]2(C)[C@@]1(O)C(=O)CO` [dexamethasone]: in series [5], the liver/body weight ratio entry is recorded as “markedly increased liver/body weight ratios”. Also, in the series on HDL2, the HDL2/total cholesterol ratio entry is listed as “noteworthy improvement in HDL2/total cholesterol ratios”.

Take `c1ccc(C(c2ccccc2)(c2ccccc2)n2ccnc2)cc1` [V, 1-triphenylmethylimidazole]: the “CYP3A activity induced compared with clotrimazole (Compound (III))” value in the series with CYP3A [2] was “significantly more CYP3A activity than did the lead compound”.
